How the values were obtained:
[1] = Stress stability evaluation for moisture (93% RH), HPLC purity; format: physicochemical; details: for Purity: 93% RH
Source text: (§1) To confirm the possibility of commercializing the novel crystalline form E of enavogliflozin of the present invention, the crystalline form A of enavogliflozin in Korean Unexamined Patent Application Publication No. 2017-0142904 was used as a control to test stress stability, and analyzed by high performance liquid chromatography (HPLC), and the results are shown in Tables 4 and 5.

[2] = Evaluation of hygroscopicity (weight change in desiccators at set relative humidity); format: physicochemical; details: for Weight change: two days or more, 60 mg
Procedure: The crystalline form A of enavogliflozin in the known Korean Unexamined Patent Application Publication No. 2017-0142904 and the enavogliflozin crystalline form E were taken in amounts of 60 mg each and placed in desiccators at relative humidity of 11%, 33%, 54%, 75%, and 93%, each for two days or more to absorb moisture, and then the weight change was measured.

[3] = Stress stability evaluation for heat (60° C.), HPLC purity; format: physicochemical; details: for Purity: 60° C.
Source text: as §1

[4] = Pharmacokinetic study in beagle dogs, oral administration; format: in vivo, beagle dog; details: 1 mg/kg
Procedure: Pharmacokinetic profiles of crystalline form A of enavogliflozin and the novel crystalline form E were to be confirmed in beagle dogs. The crystalline form A of enavogliflozin was set as a control, the novel crystalline form E was set as a comparison group, and each of the crystalline form A of enavogliflozin and the novel crystalline form E was orally administered to a male beagle dog at a dose of 1 mg/kg, and blood samples were collected before administration (0 hours), and at 0.083, 0.25, 0.5, 0.75, 1, 1.5, 2, 4, 6, 8, 12, and 24 hours (a total of 13 times). Blood drug concentrations were analyzed by LC-MS/MS using plasma separated from the collected samples, and pharmacokinetic parameters such as the maximum observed plasma concentration (Cmax), an area under the plasma concentration-time curve (AUClast and AUCinf), a time-to-maximum observed plasma concentration (Tmax), and a half-life (T1/2) were calculated and interpreted using the WinNonlin 5.0.1 program.

[5] = beagle dog, relative to crystalline form A

Purity ([1]; Initial, HPLC) [%] | Purity ([1]; Week 2, HPLC) [%] | Purity ([1]; Week 4, HPLC) [%] | Weight change ([2]; relative humidity 11%) [%] | Weight change ([2]; relative humidity 33%) [%] | Weight change ([2]; relative humidity 54%) [%] | Weight change ([2]; relative humidity 75%) [%] | Weight change ([2]; relative humidity 93%) [%] | Purity ([3]; Initial, HPLC) [%] | Purity ([3]; Week 2, HPLC) [%] | Purity ([3]; Week 4, HPLC) [%] | Purity ([3]; Week 8, HPLC) [%] | Compound | also measured
99.8 | 99.8 | 99.8 | 0 | 0.5 | 0.5 | 0.5 | 0.5 | 99.1 | 98.8 | 99.1 | 99.5 | OC[C@H]1O[C@@H](c2cc(Cc3ccc(C4CC4)cc3)c(Cl)c3c2CCO3)[C@H](O)[C@@H](O)[C@@H]1O [Crystalline form A of enavogliflozin, enavogliflozin] | –
99.0 | 99.3 | 99.3 | 0 | 0.3 | 0.3 | 0.3 | 0.3 | 99.0 | 99.2 | 99.2 | 99.5 | OC[C@H]1O[C@@H](c2cc(Cc3ccc(C4CC4)cc3)c(Cl)c3c2CCO3)[C@H](O)[C@@H](O)[C@@H]1O [Crystalline form E of enavogliflozin, enavogliflozin] | PK exposure parameters AUClast and AUCinf compared to crystalline form A (in words) [4, 5]: increased; Tmax reduction compared to crystalline form A [4, 5]: ≥ 1.25 times; AUC(0-inf) ([4]; male beagle dog, plasma): 4820 ng·h/mL; AUC(0-t) ([4]; male beagle dog, plasma): 4540 ng·h/mL; Cmax ([4]; male beagle dog, plasma): 470 ng/mL; Tmax ([4]; male beagle dog, plasma): 3.2 h; half-life ([4]; male beagle dog, plasma): 5.04 h; Stress stability, purity and crystalline form (in words) ([1]; 4 weeks at 93% RH): stably maintained; Hygroscopicity compared to crystalline form A (in words) ([2]; relative humidity 11% to 93%): more improved hygroscopicity; Stress stability, purity and crystalline form (in words) ([3]; 8 weeks at 60° C.): stably maintained

From patent publication US20260098033A1, “NOVEL CRYSTALLINE FORM OF ENAVOGLIFLOZIN, AND PREPARATION METHOD THEREFOR” (DAEWOONG PHARMACEUTICAL CO., LTD., priority 2022, published 2026)
